# Data as given in patent US20040116346A1, “Affinity small molecules for the EPO receptor” (priority 2002, published 2004).
# What was measured:
# Format in all cases: cell-based
# [1] = system: TF-1 and UT-7 cells; experiment: biological testing in cell lines (cell proliferation assay and cell signaling assay)
# Excerpt: Compounds identified in the initial screen were further tested for their biological activity in two assays: a cell proliferation assay and a cell signaling assay in TF-1 and UT-7 cells. The hit rate in cell proliferation was 0.16%; hit rate in cell signaling was 0.25%.
# At the end of the biological testing in cell lines TF-1 and UT-7, E4, E5, E5 analogs and E6 molecules were some of the compounds identified as showing the best activity.
# Compounds identified in the initial screen were further tested for their biological activity in two assays: a cell proliferation assay and a cell signaling assay in TF-1 cells. The hit rate in cell proliferation was 0.16%; hit rate in cell signaling was 0.25%.
# At the end of the biological testing in cell line, E4, E5, E5 analog, and E6 molecules were some of the compounds identified as showing the best activity.
# [2] = system: TF-1 cells; experiment: Cell proliferation; conditions: TF-1 cells stimulated for 96 hours
# Description: TF-1 cells were stimulated for 96 hours with different non-peptide EPO-R modulators, and it was observed that the non-peptide EPO binding molecules stimulated cellular proliferation in dose-responsive manner and to the extent of the natural hormone.
# [3] = system: EPO-Receptor down stream signaling pathway in TF-1 or UT-7 cells; experiment: In vitro signaling (EPO-R activation)
# Description: UT-7 cells were grown in Minimal Essential Medium Alpha (MEM-α) containing 20% FBS, 1.5 g/L NaHCO3, 5 ng/ml GM-CSF, and 100U Penicillin/100 ug/ml Streptomycin Sulfate (“P/S”), in T150 flasks (60 ml/flask) at 37° C., 5% CO2 to a density of no more than 5×10^5 cells/ml. The cells were starved overnight in MEM-α containing 10% FBS, 1.5 g/L NaHCO3 and P/S in T150 flasks (60ml/flask) at a density of 5×10^5 cells/ml, in 5% CO2, 37° C. The cells were then centrifuged in a swinging-bucket rotor at 200×g for 5 minutes at room temperature. The supernatant was removed, and the cells pooled into one 50 ml conical tube. The cells were washed twice with serum-free medium (MEM-alpha containing 1.5 g/L NaHCO3 and P/S). After the last wash, the cells were resuspended to a density of 1×10^7 cells/ml in serum-free medium. The cells were then placed in 15 ml conical tubes in 1 ml aliquots and incubated with the caps loosened for 1 hour at 37° C., 5% CO2. Every 10 minutes, the lower portion of each tube was tapped (flicked) several times to prevent the cells from settling (please note, this step is very important!)
# It was also observed that EPO-R was phosphorylated when stimulated with non-peptide EPO-R modulators. (See FIG. 4) […]
smiles,measurement,setting,value
Cc1ccc(Cl)cc1Nc1nc2nc(C)c(NCC3CC3)cn2n1 [Compound E5],maximum activity compared to EPO natural hormone,[1]; cell line (TF-1 cells),maximum activity comparable to that of the maximum activity of EPO
same,maximum activity compared to EPO natural hormone,"[1]; cell lines TF-1 and UT-7, in the presence of low levels of EPO",maximum activity comparable to that of the maximum activity of EPO
same,cellular proliferation,[2],proliferative effect
same,activation of EPO-R,[3],activation of EPO-R
